Results published in US20260008817A1, “CYCLIC PEPTIDE OR SALT THEREOF, AND USES THEREOF” (FUJIFILM Corporation, priority 2023, published 2026).
Positions of bridges follow the written chain, without caps; N, C: chain ends. No end group written: not given here. COCH2 = acetyl group that carries the bridge

Assays:
[1] = test system: BaF3 cells stably expressing FGFR (bovine); experiment: BaF3 cell proliferation-promoting effect, bovine FGFR; assay type: cell-based; conditions: viable cells at the addition concentration (0.001 to 10 nmol/L) with largest number; 2 nights
Procedure: (§1) The FGFR phosphorylation ability of the cyclic peptide complex was evaluated using the BaF3 cell proliferation-promoting effect in which FGFR was stably expressed.
(§2) BaF3 cells stably expressing FGFR were established by introducing a vector (human: Gene Copoeia, EX-Y2820-M67, bovine: sequence of Accession No. A4IFL5 was introduced into pCDNA3.1/Hygro(+) Mammalian Expression Vector (Thermo, V87020), porcine: sequence of Accession No. A0A8D1E4H1 was introduced into pCDNA3.1/Hygro(+) Mammalian Expression Vector (Thermo, V87020), and avian: sequence of Accession No. P21804 was introduced into pCDNA3.1/Hygro(+) Mammalian Expression Vector (Thermo, V87020)) into which FGFR gene had been incorporated, into BaF3 cells using Nucleofector and performing drug selection of cells into which the FGFR gene had been introduced using hygromycin.
(§3) The evaluation of the proliferation-promoting effect of BaF3 cells in which FGFR is stably expressed was performed by the following method. […] The number of viable cells was calculated from the imaging data, and the cell proliferation-promoting effect was evaluated according to the following evaluation criteria. […]

[2] = test system: BaF3 cells stably expressing FGFR (avian); experiment: BaF3 cell proliferation-promoting effect, avian FGFR; assay type: cell-based; conditions: viable cells at the addition concentration (0.001 to 10 nmol/L) with largest number; 2 nights
Procedure: as §1, §2, §3

[3] = test system: BaF3 cells stably expressing FGFR (porcine); experiment: BaF3 cell proliferation-promoting effect, porcine FGFR; assay type: cell-based; conditions: viable cells at the addition concentration (0.001 to 10 nmol/L) with largest number; 2 nights
Procedure: as §1, §2, §3

[4] = test system: BaF3 cells stably expressing FGFR (human); experiment: BaF3 cell proliferation-promoting effect, human FGFR; assay type: cell-based; conditions: viable cells at the addition concentration (0.001 to 10 nmol/L) with largest number; 2 nights
Procedure: as §1, §2, §3

[5] = target: Recombinant Human FGFR1 alpha (IIIc) Fc Chimera Protein, CF (R&D systems, 658-FR-050) (human) (UniProt P11362); experiment: SPR grade, peptide 10 nmol/L over FGFR1-Fc; conditions: scale: moleculesofcyclicpeptide/onemoleculeoffgfr
[6] = target: T1, FGFR3 Protein, Human, Recombinant (ECD, His Tag) (Sino Biological, 16044-H08H) (human, UniProt P22607 23-375); experiment: SPR grade, FGFR 1 umol/L over immobilized peptide
T1 construct: extracellular domain; bought; flowed at 1 umol/L over immobilized peptide
T1 sequence (looked up): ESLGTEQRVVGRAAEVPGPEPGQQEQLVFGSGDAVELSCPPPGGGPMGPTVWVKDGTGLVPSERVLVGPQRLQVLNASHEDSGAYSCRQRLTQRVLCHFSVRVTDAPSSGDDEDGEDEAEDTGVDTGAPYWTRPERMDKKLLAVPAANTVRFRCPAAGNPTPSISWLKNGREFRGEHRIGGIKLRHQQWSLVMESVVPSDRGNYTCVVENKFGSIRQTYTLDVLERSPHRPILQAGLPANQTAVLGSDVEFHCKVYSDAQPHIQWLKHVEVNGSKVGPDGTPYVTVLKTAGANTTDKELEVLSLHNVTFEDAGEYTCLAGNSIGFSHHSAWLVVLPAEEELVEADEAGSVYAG
Procedure: (§4) A CM5 sensor chip (Cytiva, 29149603) was set in Biacore-T200 (manufactured by Cytiva) which is a surface plasmon resonance device, and an HBS-EP buffer (Cytiva, BR100826) was added as a running buffer at a flow rate of 10 μL/min to equilibrate the flow channel. Next, 70 μL of a mixed aqueous solution of 0.2 mol/L 1-(3-dimethylaminopropyl)-3-ethylcarbodiimide (EDC) and 0.05 mol/L N-hydroxysuccinimide (NHS) was added to activate the sensor chip. Then, a cyclic peptide prepared to 2 mg/mL in HBS-EP buffer was added thereto to perform immobilization at about 200 RU. Thereafter, the blocking treatment was performed with an ethanolamine solution. In addition, in another flow channel of the same sensor chip, blocking treatment was performed immediately after activation without […].
(§5) After various FGFRs (FGFR1 Protein, Human, Recombinant (His Tag) (Sino Biological, 10616-H08H), FGFR3 Protein, Human, Recombinant (ECD, His Tag) (Sino Biological, 16044-H08H), FGFR4 Protein, Human, Recombinant (His Tag) (Sino Biological, 10538-H08H)) diluted with HBS-EP to 1 μmol/L at 25° C. was added to each flow channel of the cyclic peptide-immobilized sensor chip prepared above, for 10 minutes, HBS-EP was allowed to flow as a running buffer for 30 minutes, and the binding of various FGFRs to the cyclic peptide was measured. […] The binding amount of the cyclic peptide was evaluated from the difference between the measured value of Biacore-T200 in the flow channel in which the cyclic peptide was immobilized and the measured value of Biacore-T200 in the flow channel in which the cyclic peptide was not immobilized, in a case where 1 μmol/L FGFR was allowed to flow.
(§6) The binding amount of FGFR evaluated above was normalized to the binding amount of FGFR molecules per one molecule of the cyclic peptide using the molecular weights of the cyclic peptide and FGFR, and the binding affinity to FGFR was evaluated according to the following evaluation criteria.

[7] = target: T2, FGFR4 Protein, Human, Recombinant (His Tag) (Sino Biological, 10538-H08H) (human, UniProt P22455 22-369); experiment: SPR grade, FGFR 1 umol/L over immobilized peptide
T2 construct: bought; flowed at 1 umol/L over immobilized peptide
T2 sequence (looked up): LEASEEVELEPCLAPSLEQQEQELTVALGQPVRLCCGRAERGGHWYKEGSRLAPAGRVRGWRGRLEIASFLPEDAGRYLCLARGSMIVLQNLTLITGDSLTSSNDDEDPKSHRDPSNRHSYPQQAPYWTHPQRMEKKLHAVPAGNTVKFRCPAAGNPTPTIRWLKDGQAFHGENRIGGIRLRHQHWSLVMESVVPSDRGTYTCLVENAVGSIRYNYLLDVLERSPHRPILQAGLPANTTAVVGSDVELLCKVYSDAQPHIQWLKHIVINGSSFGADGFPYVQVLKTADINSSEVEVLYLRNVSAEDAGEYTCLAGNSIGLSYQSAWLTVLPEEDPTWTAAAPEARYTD
Procedure: as §4, §5, §6

[8] = target: T3, FGFR1 Protein, Human, Recombinant (His Tag) (Sino Biological, 10616-H08H) (human, UniProt P11362-7 22-374); experiment: SPR grade, FGFR 1 umol/L over immobilized peptide
T3 construct: bought; flowed at 1 umol/L over immobilized peptide
T3 sequence (looked up): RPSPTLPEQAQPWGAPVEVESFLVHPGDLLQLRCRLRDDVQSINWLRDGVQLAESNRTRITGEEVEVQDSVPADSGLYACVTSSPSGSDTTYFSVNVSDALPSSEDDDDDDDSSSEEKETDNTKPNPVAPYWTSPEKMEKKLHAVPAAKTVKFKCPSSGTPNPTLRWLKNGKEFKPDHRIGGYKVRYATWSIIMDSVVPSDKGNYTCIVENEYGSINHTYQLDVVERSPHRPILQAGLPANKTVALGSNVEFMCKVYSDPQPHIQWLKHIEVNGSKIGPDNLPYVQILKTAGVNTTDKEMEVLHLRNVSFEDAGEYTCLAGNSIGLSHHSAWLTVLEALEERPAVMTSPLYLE
Procedure: as §4, §5, §6

With “343 (ACVWTFDRHAQEISQALHKVGSGSGSSGSGSSGSSACVWTFDRHAQEISQALHKV; also: cyclic peptide, ring type and places not given here) [compound 343]” the “Evaluation result of cell proliferative properties Bovine” value [1] was “A (The number of viable cells is 400 cells/well or more.)”, the “Evaluation result of cell proliferative properties Avian” value [2] was “B (The number of viable cells is 200 cells/well or more and less than 400 cells/well.)” and the “Evaluation result of cell proliferative properties Porcine” value [3] was “B (The number of viable cells is 200 cells/well or more and less than 400 cells/well.)”. The “Evaluation result of cell proliferative properties Human” value [4] was “C (The number of viable cells is 100 cells/well or more and less than 200 cells/well.)”.

With “344 (ACVWTFDRHAQEISQALHKVACVWTFDRHAQEISQALHKV; also: cyclic peptide, ring type and places not given here) [compound 344]” the “Evaluation result of cell proliferative properties Bovine” value [1] was “A (The number of viable cells is 400 cells/well or more.)”, the “Evaluation result of cell proliferative properties Avian” value [2] was “B (The number of viable cells is 200 cells/well or more and less than 400 cells/well.)” and the “Evaluation result of cell proliferative properties Porcine” value [3] was “B (The number of viable cells is 200 cells/well or more and less than 400 cells/well.)”. The “Evaluation result of cell proliferative properties Human” value [4] was “B (The number of viable cells is 200 cells/well or more and less than 400 cells/well.)”.

B1: cyclic peptide SEQ ID NO: 335 (peptide)
peptide: ACVWTFDRHAQEISQALHK(COCH2)VKKK
modifications: thioether 2-19
notes: chemically synthesized
In the case of B1, the binding amount (SPR, molecules of cyclic peptide bound per one molecule of FGFR at 10 nmol/L peptide) [5] is reported as greater than 0.7, the “binding amount (SPR, molecules of FGFR per one molecule of cyclic peptide, at 1 umol/L FGFR)” value [6] is reported as 0.01 to 0.05 moleculesoffgfr/onemoleculeofthecyclicpeptide and the “binding amount (SPR, molecules of FGFR per one molecule of cyclic peptide, at 1 umol/L FGFR)” value [7] is reported as ≥ 0.05 moleculesoffgfr/onemoleculeofthecyclicpeptide. The “binding amount (SPR, molecules of FGFR per one molecule of cyclic peptide, at 1 umol/L FGFR)” value [8] was ≥ 0.05 moleculesoffgfr/onemoleculeofthecyclicpeptide.
